How the values were obtained:
primary mouse OPCs = assay: agarose drop migration assay; type: cell-based; conditions: any of the concentrations tested (0.3 nM to 3000 nM); after 5 days
Description: The effects of ponesimod, a selective S1P1 receptor agonist, and A971432, a selective S1P5 receptor agonist, on oligodendrocyte precursor cell (OPC) migration and differentiation were evaluated. Nine concentrations were tested (logarithmic dilutions ranging from 0.3 nM to 3000 nM, n=6 per concentration). Fingolimod phosphate (P-FTY720, 3000 nM, n=6) was included as a positive control, 0.1% DMSO was included (min.one/plate) as a negative control. Primary mouse OPCs were harvested on postnatal day 0 or 1 and mixed glia cultures were maintained for 14 days. Primary OPCs were then purified using the shake-off method, and used for either a migration assay, or a differentiation assay, as detailed below. To harvest primary mouse OPCs, cortices are isolated from mouse pups on postnatal day 0 or 1 and placed in ice-cold Dulbecco's Modified Eagle Medium (DMEM) (Sigma Aldrich, Overijse, BE). The cortices are homogenized and centrifuged for 5 minutes at 300 G. The supernatant is removed, and a papain solution is added for 30 minutes (125 uL DMEM solution per brain containing 20 units/ml papain and 40 μg/ml DNase, at 37 degrees). Digestion is inactivated by adding 9 ml cold DMEM. The solution is then centrifuged for 5 minutes at […]. The supernatant is carefully removed, and the pellet is resuspended in 2-5 ml culture medium (DMEM with 10% fetal calf serum (Biowest, Nuaillé, FR) and 1% pen/strep (Sigma Aldrich, Overijse, BE)). […] Cell suspension is divided over PLL (Sigma Aldrich, Overijse, BE)-coated flasks (2 brains per flask) and DMEM is added to a final volume of 10 ml. DMEM is replaced on day 4, 7, and 11. On day 7 and 11, insulin (Sigma Aldrich, Overijse, BE) is added to the medium (5μg/ml). On day 14, OPCs are separated from astrocytes by the shake-off method: flasks are placed on a shaker for 45 minutes at 75 rpm (37 degrees). […] The extent of cell migration is then measured after 5 days using Incucyte imaging analysis and fluorescent endpoint staining. For each well, the 15-20 cells that migrated the furthest away from the agarose drop are measured and averaged. […]

[1] = system: adult subjects with relapsing MS; assay: Phase III OPTIMUM study, safety and treatment discontinuation
Description: A prospective, multicenter, randomized, double-blind, active controlled, parallel-group, phase III, superiority study (Phase III OPTIMUM study) was conducted.
Subjects had active disease evidenced by one or more MS attacks with onset within the period of 12 to 1 months prior to baseline EDSS assessment, or by two or more MS attacks with onset within the 24 to 1 months prior to baseline EDSS assessment, or with one or more gadolinium-enhancing (Gd+) lesion(s) of the brain on an MRI performed within 6 months prior to baseline EDSS assessment. Enrolled subjects were ambulatory with an EDSS score of up to 5.5 inclusive. The subjects were treatment-naïve (i.e., no MS disease-modifying therapy received at any time in the past) or previously treated with interferon (IFN) β-1a, IFN β-1b, glatiramer acetate, dimethyl fumarate, or natalizumab.
The treatment period consisted of an up-titration period (from Day 1 to 14) and a maintenance period (Day 15 until EOT).
To reduce the first-dose effect of ponesimod, an up-titration scheme was implemented from Day 1 to Day 14: • Days 1 and 2; 2 mg. • Days 3 and 4; 3 mg. • Days 5 and 6; 4 mg. • Day 7; 5 mg. • Day 8; 6 mg. • Day 9; 7 mg. • Day 10; 8 mg. • Day 11; 9 mg. • Days 12, 13, and 14; 10 mg. • Day 15 until EOT; 20 mg.
The Safety Set (SAF) included all randomized subjects who received at least one dose of study treatment. Subjects were analyzed based on actual treatment taken, not randomized treatment.

MS patients = assay: Phase III OPTIMUM study, efficacy outcomes; type: in vivo, human; conditions: ponesimod 20 mg compared with teriflunomide 14 mg
[2] = system: normal appearing white matter (NAWM) of MS patients; assay: Phase III OPTIMUM study, myelination estimated from standardized T1/T2 MRI; type: in vivo, human
Excerpt: The impact of treatment on myelination changes in normal appearing white matter (NAWM) which sustains damage early in the MS disease course was compared
Myelination was estimated from T1 and T2-weighted magnetic resonance images collected at baseline, week 60 and week 108 in 427 patients treated with ponesimod and 428 with teriflunomide. Standardized T1/T2 was used to quantify myelination in non-lesional corpus callosum, cingulum, and remaining NAWM. Average myelination change (ΔM) from baseline at weeks 60 (w60) and 108 (w108) were compared across treatment arms using two-sided two sample t-tests, all p-values nominal.

[3] = Safety Set, ponesimod 20 mg, teriflunomide 14 mg
[4] = ponesimod 20 mg, teriflunomide 14 mg

## O=C(O)C1CN(Cc2ccc(OCc3ccc(Cl)c(Cl)c3)cc2)C1 [A97]
Primary mouse OPCs
  migration distance: did not affect migration distance

## CCC/N=C1\S/C(=C\c2ccc(OC[C@H](O)CO)c(Cl)c2)C(=O)N1c1ccccc1C [ponesimod, (R)-5-[3-chloro-4-(2,3-dihydroxy-propoxy)-benz[Z]ylidene]-2-([Z]-propylimino)-3-o-tolyl-thiazolidin-4-one]
Primary mouse OPCs
  migration distance: did not affect migration distance
[1]; Day 1, first dose
  2nd or higher degree AV block: No 2nd or higher degree AV block
  ECG HR effect: nadir: 2 hours post-dose
  subjects meeting discharge criteria at 4 hours post-dose: ca. 99%
[1]; Day 1, all with pre-treatment HR<55 bpm
  subjects with asymptomatic post-dose HR≤40 bpm: 3
[1]; [3]
  AEs leading to premature discontinuation of study drug, SOC Reproductive system and breast disorders: 0 n
  AEs leading to premature discontinuation of study drug, SOC Surgical and medical procedures: 0 n
  Premature treatment discontinuation: Death: 0 n
  Subject with at least one AE leading to study drug discontinuation: 8.7%
  Subject with at least one Fatal AE: 0 n
  Subject with at least one Serious AE: 8.7%
  Subject with at least one treatment-emergent AE: 88.8%
  Treatment-emergent AESI: Hepatobiliary disorders/Liver enzyme abnormality: 25.7%
  Treatment-emergent AESI: Hypertension: 10.1%
  Treatment-emergent AESI: Pulmonary events: 8.0%
[1]; at 2-hours post dose, Day 1
  mean heart rate reduction compared to pre-dose: −8.7 bpm
[1]; on Day 1, Safety Set
  AESI heart rate and rhythm: Electrocardiogram QT prolonged: 0 n
  AESI heart rate and rhythm: Presyncope: 0 n
[1]; on Day 1, Safety Set, ponesimod arm (2 mg on Day 1), teriflunomide 14 mg
  AESI effect on heart rate and rhythm (including hypotension): Subjects with at least one AE: 2.1%
[1]; [4]
  TEAE ALT increased: 19.5%
  TEAE headache: 11.5%
  TEAE nasopharyngitis: 19.3%
  TEAE upper respiratory tract infection: 10.6%
  proportion of subjects who experienced ALT increase>3×ULN: 17.3%
  proportion of subjects who experienced ALT increase>8×ULN: 0.7%
  subjects discontinued due to AEs or tolerability related reasons: 6.5%
MS patients
  Fatigue Symptoms and Impacts Questionnaire-Relapsing Multiple Sclerosis: difference
  active lesions/year: reduction
  annualized relapse rate: greater reduction
  brain volume loss: lower
  disability accumulation risk estimates: reduction
[2]; all regions and both visits (w60, w108), ponesimod 20 mg vs teriflunomide 14 mg
  average myelination decrease, comparison across treatment arms: significantly less demyelination
[2]; non-lesional corpus callosum, cingulum, remaining NAWM, weeks 60 and 108, p<0.05
  myelination change from baseline (standardized T1/T2): only the corpus callosum showed a significant decrease at w108

Source: US20240261267A1, “METHODS FOR TREATING MULTIPLE SCLEROSIS” (Vanda Pharmaceuticals Inc., priority 2021, published 2024)
